Active and inactive are the calls of the source. How the calls were made is not given here.
Test system: CCRIS mutagenicity, Ames/micronucleus/aberration tests
Experiment: CCRIS mutagenicity studies
[1] = Test System: AMES SALMONELLA TYPHIMURIUM, Strain/Indicator: TA98, Metabolic Activation: NONE, Method: PREINCUBATION
[2] = Test System: AMES SALMONELLA TYPHIMURIUM, Strain/Indicator: TA100, Metabolic Activation: NONE, Method: PREINCUBATION
[3] = Test System: AMES SALMONELLA TYPHIMURIUM, Strain/Indicator: TA1535, Metabolic Activation: NONE, Method: PREINCUBATION
[4] = Test System: AMES SALMONELLA TYPHIMURIUM, Strain/Indicator: TA1537, Metabolic Activation: NONE, Method: PREINCUBATION
[5] = Test System: AMES SALMONELLA TYPHIMURIUM, Strain/Indicator: TA100, Metabolic Activation: RAT, LIVER, S-9, PCB, Method: PREINCUBATION
[6] = Test System: AMES SALMONELLA TYPHIMURIUM, Strain/Indicator: TA98, Metabolic Activation: NONE, Method: STANDARD PLATE

In the case of CC(C)(c1ccccc1)c1ccc(O)cc1, the mutagenic call [1] is reported as “inactive; negative”, the mutagenic call (Test System: AMES SALMONELLA TYPHIMURIUM, Strain/Indicator: TA98, Metabolic Activation: RAT LIVER S-9, PHENOBARBITAL AND BETA-NAPHTHOFLAVONE, Method: PREINCUBATION) is reported as “inactive; negative” and the mutagenic call [2] is reported as “inactive; negative”. The mutagenic call (Test System: AMES SALMONELLA TYPHIMURIUM, Strain/Indicator: TA100, Metabolic Activation: RAT LIVER S-9, PHENOBARBITAL AND BETA-NAPHTHOFLAVONE, Method: PREINCUBATION) was “inactive; negative”, the mutagenic call [3] was “inactive; negative” and the mutagenic call (Test System: AMES SALMONELLA TYPHIMURIUM, Strain/Indicator: TA1535, Metabolic Activation: RAT LIVER S-9, PHENOBARBITAL AND BETA-NAPHTHOFLAVONE, Method: PREINCUBATION) was “inactive; negative”. For the same molecule, the mutagenic call [4] was “inactive; negative”, the mutagenic call (Test System: AMES SALMONELLA TYPHIMURIUM, Strain/Indicator: TA1537, Metabolic Activation: RAT LIVER S-9, PHENOBARBITAL AND BETA-NAPHTHOFLAVONE, Method: PREINCUBATION) was “inactive; negative” and the mutagenic call (Test System: AMES SALMONELLA TYPHIMURIUM, Strain/Indicator: TA1538, Metabolic Activation: NONE, Method: PREINCUBATION) was “inactive; negative”. The mutagenic call (Test System: AMES SALMONELLA TYPHIMURIUM, Strain/Indicator: TA1538, Metabolic Activation: RAT LIVER S-9, PHENOBARBITAL AND BETA-NAPHTHOFLAVONE, Method: PREINCUBATION) was “inactive; negative”, the mutagenic call (Test System: E.COLI, Strain/Indicator: WP2UVRA, Metabolic Activation: NONE, Method: PREINCUBATION) was “inactive; negative” and the mutagenic call (Test System: E.COLI, Strain/Indicator: WP2UVRA, Metabolic Activation: RAT LIVER S-9, PHENOBARBITAL AND BETA-NAPHTHOFLAVONE, Method: PREINCUBATION) was “inactive; negative”.

Nc1cccc2nc3cccc(N)c3nc12 was tested, and the mutagenic call [1] was “inactive; negative” and the mutagenic call (Test System: AMES SALMONELLA TYPHIMURIUM, Strain/Indicator: TA98, Metabolic Activation: RAT, LIVER, S-9, PCB, Method: PREINCUBATION) was “inactive; negative”.

For CCCCN(C[C@@H](CO)Cc1ccccc1)N=O, the mutagenic call [2] was “inactive; negative” and the mutagenic call [5] was “active; positive”.

CCCCCC(C)[N+](=O)[O-] (stereo not drawn) was tested, and the mutagenic call (Test System: UDS RAT HEPATOCYTES, Strain/Indicator: THY INCORP, Metabolic Activation: NONE) was “active; positive”.

In the case of OC1C2(Cl)C3(Cl)C4(Cl)C(Cl)(Cl)C5(Cl)C3(Cl)C1(Cl)C5(Cl)C24Cl (stereo not drawn), the mutagenic call (End Point: IN VITRO CHROMOSOMAL ABERRATIONS, Test System: CHINESE HAMSTER OVARY CELLS, Metabolic Activation: NONE) is reported as “inactive; negative”, the mutagenic call (Test System: AMES SALMONELLA TYPHIMURIUM, Strain/Indicator: TA98, Metabolic Activation: HAMSTER, LIVER, S-9, AROCLOR 1254 (10%), Method: PREINCUBATION) is reported as “inactive; negative” and the mutagenic call [1] is reported as “inactive; negative”. The mutagenic call (Test System: AMES SALMONELLA TYPHIMURIUM, Strain/Indicator: TA98, Metabolic Activation: RAT, LIVER, S-9, AROCLOR 1254 (10%), Method: PREINCUBATION) was “inactive; negative”, the mutagenic call (Test System: AMES SALMONELLA TYPHIMURIUM, Strain/Indicator: TA100, Metabolic Activation: HAMSTER, LIVER, S-9, AROCLOR 1254 (10%), Method: PREINCUBATION) was “inactive; negative” and the mutagenic call [2] was “inactive; negative”. For the same molecule, the mutagenic call (Test System: AMES SALMONELLA TYPHIMURIUM, Strain/Indicator: TA100, Metabolic Activation: RAT, LIVER, S-9, AROCLOR 1254 (10%), Method: PREINCUBATION) was “inactive; negative”, the mutagenic call (Test System: AMES SALMONELLA TYPHIMURIUM, Strain/Indicator: TA1535, Metabolic Activation: HAMSTER, LIVER, S-9, AROCLOR 1254 (10%), Method: PREINCUBATION) was “inactive; negative” and the mutagenic call [3] was “inactive; negative”. The mutagenic call (Test System: AMES SALMONELLA TYPHIMURIUM, Strain/Indicator: TA1535, Metabolic Activation: RAT, LIVER, S-9, AROCLOR 1254 (10%), Method: PREINCUBATION) was “inactive; negative”, the mutagenic call (Test System: AMES SALMONELLA TYPHIMURIUM, Strain/Indicator: TA1537, Metabolic Activation: HAMSTER, LIVER, S-9, AROCLOR 1254 (10%), Method: PREINCUBATION) was “inactive; negative” and the mutagenic call [4] was “inactive; negative”. The mutagenic call (Test System: AMES SALMONELLA TYPHIMURIUM, Strain/Indicator: TA1537, Metabolic Activation: RAT, LIVER, S-9, AROCLOR 1254 (10%), Method: PREINCUBATION) was “inactive; negative”.

In the case of O=c1oc2cccc3ccc4c5ccccc5cc1c4c32, the mutagenic call [6] is reported as “inactive; negative”, the mutagenic call (Test System: AMES SALMONELLA TYPHIMURIUM, Strain/Indicator: TA98, Metabolic Activation: RAT, LIVER, S-9, AROCLOR 1254, Method: STANDARD PLATE) is reported as “active; positive” and the mutagenic call (Test System: AMES SALMONELLA TYPHIMURIUM, Strain/Indicator: TA100, Metabolic Activation: RAT, LIVER, S-9, AROCLOR 1254, Method: STANDARD PLATE) is reported as “active; positive”.

In the case of CC[C@H](c1ccc(O)cc1)[C@@H](CC)c1ccc(O)cc1, the mutagenic call (End Point: IN VITRO CHROMOSOMAL ABERRATIONS, Test System: CHINESE HAMSTER CELL DON (22;XY), Metabolic Activation: NONE) is reported as “active; positive (ploidy changes)”, the mutagenic call [6] is reported as “inactive; negative” and the mutagenic call (Test System: AMES SALMONELLA TYPHIMURIUM, Strain/Indicator: TA98, Metabolic Activation: RAT, LIVER, S-9, Method: STANDARD PLATE) is reported as “inactive; negative”. For the same molecule, the mutagenic call (Test System: AMES SALMONELLA TYPHIMURIUM, Strain/Indicator: TA100, Metabolic Activation: NONE, Method: STANDARD PLATE) was “inactive; negative”, the mutagenic call (Test System: AMES SALMONELLA TYPHIMURIUM, Strain/Indicator: TA100, Metabolic Activation: RAT, LIVER, S-9, Method: STANDARD PLATE) was “inactive; negative” and the mutagenic call (Test System: AMES SALMONELLA TYPHIMURIUM, Strain/Indicator: TA1535, Metabolic Activation: NONE, Method: STANDARD PLATE) was “inactive; negative; toxicity at 50 ug/plate”. The mutagenic call (Test System: AMES SALMONELLA TYPHIMURIUM, Strain/Indicator: TA1535, Metabolic Activation: RAT, LIVER, S-9, Method: STANDARD PLATE) was “inactive; negative; toxicity at 100 ug/plate”, the mutagenic call (Test System: AMES SALMONELLA TYPHIMURIUM, Strain/Indicator: TA1537, Metabolic Activation: NONE, Method: STANDARD PLATE) was “inactive; negative; toxicity at 100 ug/plate” and the mutagenic call (Test System: AMES SALMONELLA TYPHIMURIUM, Strain/Indicator: TA1537, Metabolic Activation: RAT, LIVER, S-9, Method: STANDARD PLATE) was “inactive; negative”. For the same molecule, the mutagenic call (Test System: AMES SALMONELLA TYPHIMURIUM, Strain/Indicator: TA1538, Metabolic Activation: NONE, Method: STANDARD PLATE) was “inactive; negative”, the mutagenic call (Test System: AMES SALMONELLA TYPHIMURIUM, Strain/Indicator: TA1538, Metabolic Activation: RAT, LIVER, S-9, Method: STANDARD PLATE) was “inactive; negative; toxicity at 100 ug/plate” and the mutagenic call (Test System: UDS RAT HEPATOCYTES, Strain/Indicator: THY INCORP (18-20 HR), Metabolic Activation: NONE, Method: LIQUID SCINTILLATION COUNTING) was “inactive; negative”.

For Nc1ccc2ccc3cc4ccccc4c4ccc1c2c34, the mutagenic call (Test System: AMES SALMONELLA TYPHIMURIUM, Strain/Indicator: TA98(1,8-DNP6), Metabolic Activation: NONE) was “active; positive”, the mutagenic call (Test System: AMES SALMONELLA TYPHIMURIUM, Strain/Indicator: TA98(1,8-DNP6), Metabolic Activation: RAT, LIVER, S-9, AROCLOR 1254) was “active; positive” and the mutagenic call (Test System: AMES SALMONELLA TYPHIMURIUM, Strain/Indicator: TA98(NR), Metabolic Activation: NONE) was “active; positive”. For the same molecule, the mutagenic call (Test System: AMES SALMONELLA TYPHIMURIUM, Strain/Indicator: TA98(NR), Metabolic Activation: RAT, LIVER, S-9, AROCLOR 1254) was “active; positive”, the mutagenic call (Test System: AMES SALMONELLA TYPHIMURIUM, Strain/Indicator: TA98, Metabolic Activation: NONE) was “active; positive” and the mutagenic call (Test System: AMES SALMONELLA TYPHIMURIUM, Strain/Indicator: TA98, Metabolic Activation: RAT, LIVER, S-9, AROCLOR 1254) was “active; positive”.

For Cc1ccc(NO)c(C)c1, the mutagenic call [2] was “active; positive” and the mutagenic call [5] was “active; positive”.

Source: PubChem BioAssay AID1259407 (Chemical Carcinogenesis Research Information System (CCRIS), 2018)
